Laboratory results: the NIST ThermoML archive (doi:10.1021/je300633e)
Numbers after ± are expanded uncertainties.

What was measured:
[1] = refractive index (Na D-line) (dimensionless); mn = molality of the nth substance listed, in mol/kg; settings: 298.15 K, 101 kPa, Liquid, Standard Abbe refractometry
[2] = mn = molality of the nth substance listed, in mol/kg; settings: 298.15 K, 101 kPa, Liquid, Vibrating tube method

| refractive index ([1]; m1 = 0.1) | refractive index ([1]; m1 = 0.2) | refractive index ([1]; m1 = 0.3) | refractive index ([1]; m1 = 0.5) | refractive index ([1]; m1 = 0.7) | refractive index ([1]; m1 = 0.9) | mass density ([2]; m1 = 0.1) | mass density ([2]; m1 = 0.2) | mass density ([2]; m1 = 0.3) | mass density ([2]; m1 = 0.5) | mass density ([2]; m1 = 0.7) | mass density ([2]; m1 = 0.9) | refractive index ([1]; m1 = 0.15) | refractive index ([1]; m1 = 0.25) | refractive index ([1]; m1 = 0.35) | refractive index ([1]; m1 = 0.4) | mass density ([2]; m1 = 0.15) | mass density ([2]; m1 = 0.25) | mass density ([2]; m1 = 0.35) | mass density ([2]; m1 = 0.4) | Structure (SMILES) |
| --- | --- | --- | --- | --- | --- | --- | --- | --- | --- | --- | --- | --- | --- | --- | --- | --- | --- | --- | --- | --- |
| 1.3349 ± 0.0009 | 1.3367 ± 0.0009 | 1.3398 ± 0.0009 | 1.344 ± 0.0009 | 1.349 ± 0.0009 | 1.3532 ± 0.0009 | 1003.27 ± 1 kg/m3 | 1009.2 ± 1 kg/m3 | 1015.29 ± 1 kg/m3 | 1026.51 ± 1 kg/m3 | 1037.43 ± 1 kg/m3 | 1047.8 ± 1 kg/m3 | – | – | – | – | – | – | – | – | OC[C@@H](O)[C@@H](O)[C@H](O)[C@H](O)CO [D-mannitol] + O |
| 1.3348 ± 0.0009 | 1.3382 ± 0.0009 | 1.3409 ± 0.0009 | – | – | – | 997.981 ± 1.1 kg/m3 | 998.931 ± 1.1 kg/m3 | 999.901 ± 1.1 kg/m3 | – | – | – | 1.3363 ± 0.0009 | 1.3393 ± 0.0009 | 1.3419 ± 0.0009 | 1.3431 ± 0.0009 | 998.443 ± 1.1 kg/m3 | 999.413 ± 1.1 kg/m3 | 1000.37 ± 1.1 kg/m3 | 1000.88 ± 1.1 kg/m3 | CC(=O)NCCCCCCNC(C)=O [N,N'-diacetyl-1,6-hexanediamine] + O |
| 1.3341 ± 0.0009 | 1.3361 ± 0.0009 | 1.3382 ± 0.0009 | 1.3423 ± 0.0009 | 1.346 ± 0.0009 | 1.3494 ± 0.0009 | 1002 ± 1.1 kg/m3 | 1006.92 ± 1.1 kg/m3 | 1011.76 ± 1.1 kg/m3 | 1020.96 ± 1.1 kg/m3 | 1029.87 ± 1.1 kg/m3 | 1038.33 ± 1.1 kg/m3 | – | – | – | – | – | – | – | – | OC[C@@H](O)[C@H](O)[C@@H](O)CO [xylitol] + O |
